Where a SMILES comes first, the peptide text is derived from it. Bridges are numbered along the chain shown (N, C = ends).
Tested on: E. coli O111:B4 LPS-challenged BALB/c mice
Test: LPS-challenged mice experiment (septicemia model)
Format: in vivo
Experimental: Female BALB/c mice (5-6 weeks) was provided by HFK Bioscience Co. (Beijing, China). All mice were raised in laminar flow cabinets and housed individually in a room with strictly controlled temperature and humidity, where a 12-hour light and 12-hour dark cycle was implemented, and mice had free access to food and water throughout the experimental period.
E. coli O111:B4 LPS (Sigma-Aldrich) at a concentration of 15 mg/L was injected into the peritoneal cavity of female BALB/c mice (age 7 weeks, weight 15 ± 0.5 g), and approximately 30 min after the challenge of E. coli O111:B4 LPS, MccJ25 was orally gavaged to the mice at a concentration of 4.55 or 9.1 mg per kg body weight (BW). The concentrations of MccJ25 were selected based on our previous study ([24]). Mice were followed for 72 h to test the survival rate of mice that were later sacrificed. However, for LPS treated mice, when the lifespan of the mice was around 50%, the mice were sacrificed. The serum from mice were obtained. The lung, liver, spleen, jejunum, and ileum were harvested, kept in liquid nitrogen immediately, stored at -80°C until analysis. For histopathological assessment, tissues and organs were fixed using 4% paraformaldehyde, hematoxylin eosin (H&E) was applied to examine the histological and pathological changes according to the standard protocol as described previously ([24]).
In the LPS-challenged mice experiment, lifespan of mice was monitored for 72 h. In the cocktail of MDR E. coli strains infection experiment, BW change, rectal temperature, diarrhea scores and fecal image, or survival rate were measured. For the diarrhea score evaluation producer was referred to previous study ([24]).
The concentrations of tumor necrosis factor-α (TNF-α), interleukin-6 (IL-6), IL-4, interferon (IFN)-γ, and nitric oxide (NO) in serum were measured. In addition, TNF-α and NO levels were also measured in the supernatant of RAW264.7 cells. ELISA was performed using a commercial ELISA kit (eBioscience, San Diego, USA). LPS levels in plasma were analyzed using the QCL-1000 kit (Xiamen, China) based on the manufacturer’s standards. On the day of sacrifice, eyes were extracted with ethylenediaminetetraacetic acid (EDTA), and blood was collected into clean test tubes. Peripheral hemograms and white blood cells (WBCs) were analyzed using a Coulter LH755 hematology analyzer. The levels of serum D-lactate were measured using ELISA kit (Jiancheng, Nanjing, China) according to the manufacturer’s protocols.
The extent and mRNA expression levels of TNF-α, IL-6, IL-10, IL-1β, IFN-γ, and TLR4, and NF-κB in each body part of the jejunum, ileum, colon, and spleen and in RAW264.7 cells were clarified by RT–PCR as previously described ([31]). Primers for TNF-α, IL-6, IL-10, IL-1β, IFN-γ, TLR4, and NF-κB are described in Table S1 . The specific assay steps were as follows: total RNA was extracted from the jejunum, ileum, spleen, and cells by TRIzol reagent (Invitrogen, Carlsbad, CA). Combined with gel electrophoresis and a NanoDrop 2000 spectrophotometer (Thermo Fisher Scientific, Wilmington, DE), the quality and quantity of total RNA were determined. […] Then the 2^-ΔΔCt method was used for the next step of analysis.
Frozen tissue samples and fresh cells were homogenized in RIPA lysis buffer containing protease inhibitors (Applygen, Beijing, China). Protein levels were determined using a BCA protein assay kit (Thermo Fisher Scientific, Rockford, IL). Thirty micrograms of tissue and cell protein samples were electrophoresed on SDS polyacrylamide gels and electrotransferred to PVDF membranes (Millipore). […]

## CC[C@H](C)[C@H](NC(=O)CNC(=O)[C@@H](NC(=O)[C@H](Cc1ccccc1)NC(=O)[C@H](Cc1ccc(O)cc1)NC(=O)[C@@H]1CCC(=O)NCC(=O)NCC(=O)N[C@@H](C)C(=O)NCC(=O)N[C@@H](Cc2c[nH]cn2)C(=O)N[C@@H](C(C)C)C(=O)N2CCC[C@H]2C(=O)N1)C(C)C)C(=O)NCC(=O)N[C@H](C(=O)N1CCC[C@H]1C(=O)N[C@H](C(=O)N[C@@H](CO)C(=O)N[C@@H](Cc1ccccc1)C(=O)N[C@@H](Cc1ccc(O)cc1)C(=O)NCC(=O)O)[C@@H](C)CC)[C@@H](C)O [MccJ25, microcin J25] (GGAGHVPEYFVGIGTPISFYG-OH; lactam N-8 (inferred); C-terminus assumed)
4.55 mg/kg BW
  jejunum and ileum histopathology: moderate villus damage and epithelial cell sloughing
9.1 mg/kg BW, compared with the control group
  jejunum and ileum histopathology: few changes in the villi, crypts and intestinal mucosa
ELISA, after LPS treatment
  serum levels of TNF-α, IL-6 and NO: showed a decreasing trend
H&E
  lung histopathology: partially reverse swelling and lung damage
H&E, MccJ25 30 min after LPS
  liver and spleen histopathology: substantially reduced the degree of edema and degradation of cytoplasmic proteins
Different concentrations of MccJ25 vs LPS group
  WBC count: significantly reduce the counts of leukocytes
ileum, colon, or spleen, q-PCR
  TNF-α, TLR4 and IL-6 mRNA expression: significantly decreased
Vs mice treated with LPS only
  plasma LPS concentrations: significantly decreased
Western blot, vs LPS-infected group
  phosphorylated NF-κB, p38 MAPK and IκB protein expression: significantly decreased

— paper PMC8894198, “Biosynthetic Microcin J25 Exerts Strong Antibacterial, Anti-Inflammatory Activities, Low Cytotoxicity Without Increasing Drug-Resistance to Bacteria Target” (Frontiers in Immunology, 2022)
